From patent US5594012A, “Amino acid derivatives and anti-active oxygen agents” (Ajinomoto Co., Inc., priority 1992, dated 1997)

Experiments:
[1] = system: lipid peroxidation in murine brain homogenate; experiment: Inhibitory effects on lipid peroxidation (murine brain homogenate); assay type: biochemical, murine (C57 black mouse); conditions: 30 μM test compound; no added iron; 37° C., 60 minutes; pH 7.2 to 7.8
Description: (§1) The test was carried out according to the method described in Method in Enzymol., Vol. 52, page 302, 1978. A C57 black mouse was killed by cervical dislocation, and the whole brain extracted from the dissected head was washed with 20 mM phosphate buffer (hereinafter referred to as "PBS-2"). Then, the brain was added with PBS-2 in an amount of 19 times its wet weight, and the mixture was disrupted and homogenized with a homogenizer "Polytron" (manufactured by Kinematica). The thus prepared 5% solution of the murine brain homogenate in PBS-2 was diluted 1:5 with fresh PBS-2. To 800 μl of the resulting 1% solution of the murine brain homogenate in PBS-2 (protein content: 0.8 to 1.0 mg/ml) were successively added 100 μl of a PBS-2 solution of each of the test compounds shown in Table 7 below and 100 μl of an aqueous solution of ammonium iron (II) sulphate. The final concentration of the test compounds and ammonium iron (II) sulphate were adjusted to be 1 mM and 100 μM, respectively. If test compounds were not soluble in PBS-2 alone, an aqueous sodium hydroxide solution or DMSO was added. The pH of the solution was adjusted to 7.2 to 7.8.
Test for Inhibitory Effects on Lipid Peroxidation
To 900 μl of a 5% solution of the murine brain homogenate in PBS-2 prepared in the same way as described in Test Example 3 was added 100 μl of a PBS-2 solution of each of the test compounds shown in Table 8 below. The final concentration of the test compounds was adjusted to be 30 μM. If test compounds were not soluble in PBS-2 alone, an aqueous solution of sodium hydroxide or DMSO was added. The pH of the solution was adjusted to 7.2 to 7.8.
The solution after heated at 37° C. for 60 minutes was added with 1.0 ml of an aqeuous solution of thiobarbituric acid/trichloroacetic acid/hydrochloric acid, and the mixture was heated in a boiling water bath for 15 minutes. After ice-cooling, the solution was extracted with 2.0 ml of 1-butanol to prepare a sample for determining the lipid peroxide in the same way as described in Test Example 1. […] [formula] A4 : Absorbance when a test compound was added. A5 : Absorbance when a test compound was not added.
A6 : Abosrbance when a test compound was not added and heating at 37° C. for […] was not carried out.

hydroxyl radical [2] = experiment: Inhibitory effects on hydroxyl radical formation (2) (iron (II)/hydrogen peroxide, DMPO, ESR); assay type: biochemical; conditions: 306 μM test compound; 306 μM iron (II) sulphate; 75 mM DMPO; 306 μM hydrogen peroxide; ESR within 40 seconds
Description: Test for Inhibitory Effects on Hydroxyl Radical Formation (2)
To 75 μl of a solution of each of the test compounds shown in Table 9 below in 0.1M phosphate buffer (hereinafter referred to as "PBS-3") were successively added 75 μl of an aqueous solution of iron (II) sulphate, 20 μl of an aqueous solution of 5,5-dimethyl-1-pyrroline-N-oxide "DMPO" (manufactured by Dojin Chemical) and 75 μl of an aqueous solution of hydrogen peroxide. […] If test compounds were not soluble in PBS-3 alone, an aqueous sodium hydroxide solution or N,N-dimethyl formamide was added.
This solution was subjected to determination for the hydroxy radical immediately (within 40 seconds), using an electron spin resonance (ESR) meter "JES-FR80S" (manufactured by Nippon Denshi).
[formula] E1 : Signal magnitude when a test compound was added. E2 : Signal magnitude when a test compound was not added.

[3] = system: lipid peroxidation in murine brain homogenate; experiment: Inhibitory effects on metal ion-induced lipid peroxidation (murine brain homogenate); assay type: biochemical, murine (C57 black mouse); conditions: 1 mM test compound; 100 μM ammonium iron (II) sulphate; 37° C., 30 minutes; pH 7.2 to 7.8
Description: Test for Inhibitory Effects on Metal Ion-induced Lipid Peroxidation
as §1
The solution after heated at 37° C. for 30 minutes was added with 2.0 ml of an aqueous solution of thiobarbituric acid/trichloroacetic acid/hydrochloric acid, and the mixture was heated in a boiling water bath for 15 minutes. After ice-cooling, the solution was extracted with 1.0 ml of 1-butanol to prepare a sample for determining the peroxide lipid in the same way as described in Test Example 1.
(§2) [formula] A1 : Absorbance when a test compound was added. A2 : Absorbance when a test compound was not added.
A3 : Absorbance when a test compound was not added and heating at 37° C. for 30 minutes was not carried out.

UV absorptive activities = assay type: physicochemical; conditions: 100 μM in ethanol (water or DMSO added if not soluble); for Maximum molar extinction coefficient: UVA and UVB regions
Description: Test for UV Absorptive Activities
A solution of each of the test compounds shown in Table 10 below in ethanol was prepared for the final concentration to be 100 μM. If test compounds were not soluble in ethanol alone, water or DMSO was added.
The absorption spectrum of each sample was determined using a spectrophotometer "Model 320" (manufactured by Hitachi).

[4] = system: lipid peroxidation in homogenate of murine swiss 3T3 cells; experiment: Inhibitory effects on UV-induced lipid peroxidation (homogenate of murine swiss 3T3 cells); assay type: biochemical; conditions: 1 mM test compound; UVB 0.4 mW/cm^2, 90 min; pH 7.2 to 7.8; TBA, 535 nm
Description: Test for Inhibitory Effects on UV-induced Lipid Peroxidation
The test was carried out on the basis of the methods described in Biochim. Biophys. […] Namely, 12 μl of an aqueous sodium hydroxide solution of each of the test compounds shown in Table 5 below was added to 1.2 ml of a homogenate of murine swiss 3T3 cells (i.e. a kind of murine skin cells) prepared by a conventional method in 20 mM phosphate buffer (protein content: 1.5 to 1.8 mg/ml). The final concentration of the test compounds was adjusted to be 1 mM and the pH of the solution was adjusted to 7.2 to 7.8. If test compounds were not soluble in an aqueous sodium hydroxide solution, they were dissolved in N,N-dimethyl sulfoxide (DMSO).
This solution (1.1 ml) was irradiated with UV rays (0.4 mW/cm^2, 90 min.) using a UVB lamp "EB-280C/J" (manufactured by Spectronics). To an aliquot (1.0 ml) of this solution were successively added 0.2 ml of an aqueous solution of sodium dodecyl sulfate and 1.0 ml of an aqueous solution of thiobarbituric acid/trichloroacetic acid/hydrochloric acid, and the mixed solution was heated in a boiling water bath for 15 minutes. After ice-cooling, the solution was extracted with 1.0 ml of 1-butanol to prepare a sample for determining peroxide lipid as absorbance at a wavelength of 535 nm using a spectrophotometer "Model 320" (manufactured by Hitachi).
as §2
A3 : Absorbance when a test compound was not added and UV rays were not irradiated.

hydroxyl radical [5] = experiment: Inhibitory effects on hydroxyl radical formation (1) (xanthine/xanthine oxidase, deoxyribose); assay type: biochemical; conditions: 360 μM test compound; 36 μM ammonium iron (III) sulphate; xanthine oxidase 0.7 unit/ml; 37° C., 15 minutes; pH 7.4 to 7.8
Description: Test for Inhibitory Effects on Hydroxyl Radical Formation (1)
The test was carried out in accordance with the method described in FEBS Letters, Vol. 128, page 347, 1981. Namely, to 1.1 ml of a solution of 54 mM sodium chloride in 9 mM phosphate buffer (hereinafter referred to as "PBS-I") were successively added 140 μl of a solution of each of the test compounds shown in Table 6 below in PBS-1, […] of a 1 mM solution of ammonium iron (III) sulphate in hydrochloric acid, 140 μl of a solution of xanthine (manufactured by Tokyo Kasei Co.) in PBS-1, 14 μl a solution of deoxyribose (Sigma) in PBS-1 and xanthine oxidase (Sigma). The final concentrations of the test compounds, ammonium iron (III) sulphate, xanthine, deoxyribose and xanthine oxidase were adjusted to be 360 μM, 36 μM, 70 μM, 700 μM and 0.7 unit/ml, respectively. If test compounds were not soluble in PBS-1 alone, aqueous sodium hydroxide solution or DMSO was added. The pH of the solution was adjusted to 7.4 to 7.8.
. The percent inhibition of the hydroxyl radical was calculated from the following equation (2) and the results are shown in Table 6. [formula] F1 : Intensity of fluorescence when a test compound was added. F2 : Intensity of fluorescence when a test compound was added but deoxyribose was not added.
F3 : Intensity of fluorescence when a test compound was not added.
F4 : Intensity of fluorescence when neither test compound nor deoxyribose was added.

| Molecule | % Inhibition of lipid peroxidation [1] [%] | % Inhibition of hydroxy radicals (hydroxyl radical [2]) [%] | % Inhibition of metal ion-induced lipid peroxidation [3] [%] | Wavelength (nm) of maximum absorption (UV absorptive activities) [nm] | Maximum molar extinction coefficient (UV absorptive activities) | % Inhibition of UV-induced lipid peroxidation [4] [%] | % Inhibition of hydroxyl radical (hydroxyl radical [5]) [%] |
| --- | --- | --- | --- | --- | --- | --- | --- |
| Cc1ncc(CO)c(CNCC(=O)O)c1O [Synthesis Example 16] | 89 | 56 |  |  |  |  |  |
| O=C(O)C(Cc1c[nH]cn1)N=Cc1ccccc1O (stereo not drawn) [Synthesis Example 60] |  | 33 | 34 |  |  |  |  |
| O=C(O)CCC(N=Cc1c(O)ccc2ccccc12)C(=O)O (stereo not drawn) [Synthesis Example 47] |  | 32 | 90 |  |  |  |  |
| Cc1ncc(CO)c(C=NC(CO)C(=O)O)c1O (stereo not drawn) [Synthesis Example 69] | 15 | 19 | 23 | 336 | 3,000 |  |  |
| Cc1ncc(CO)c(CNC(Cc2c[nH]cn2)C(=O)O)c1O (stereo not drawn) [Synthesis Example 22] | 91 | 51 |  | 290 | 5,300 |  |  |
| O=C(O)C(CCO)N=Cc1c(O)ccc2ccccc12 (stereo not drawn) [Synthesis Example 29] |  | 60 | 78 |  |  |  |  |
| O=C(O)C(CCO)NCc1ccccc1O (stereo not drawn) [Synthesis Example 3] |  | 45 | 21 |  |  | 65 | 15 |
| O=C(O)CC(O)(CC(=O)O)C(=O)O [Citric acid, reference compound] | -13 |  | -15 |  |  | 19 | -33 |
| N=C(N)NCCCC(N=Cc1c(O)ccc2ccccc12)C(=O)O (stereo not drawn) [Synthesis Example 53] |  | 68 | 96 |  |  |  |  |
| O=C(O)[C@H](Cc1c[nH]cn1)N=Cc1c(O)ccc2ccccc12 [Synthesis Example 27, N-(2-hydroxy-1-naphthal)-L-histidine] | 98 | 71 | 87 | 309 | 7,000 |  |  |
| Cc1ncc(CO)c(CNC(CCCNC(=N)N)C(=O)O)c1O (stereo not drawn) [Synthesis Example 24] | 85 |  |  |  |  |  |  |
| CC(C)C(N=Cc1c(O)ccc2ccccc12)C(=O)O (stereo not drawn) [Synthesis Example 30] |  | 25 | 43 |  |  |  |  |
| O=C(O)C(Cc1ccc(O)cc1)N=Cc1c(O)ccc2ccccc12 (stereo not drawn) [Synthesis Example 31] |  |  | 90 |  |  |  | 16 |
| O=C1O[C@H]([C@@H](O)CO)C(O)=C1O [Vitamin C, reference compound] | -22 |  | -23 |  |  |  |  |
| Cc1ncc(CO)c(C=NC(Cc2ccc(O)cc2)C(=O)O)c1O (stereo not drawn) [Synthesis Example 70] |  | 28 | 27 |  |  |  | 60 |
| Vitamin E [reference compound] | 30 |  | 29 |  |  |  |  |
| Cc1ncc(CO)c(CNC(Cc2ccccc2)C(=O)O)c1O (stereo not drawn) [Synthesis Example 25] | 55 |  |  |  |  |  |  |
| O=C(O)C(Cc1ccc(O)cc1)NCc1ccccc1O (stereo not drawn) [Synthesis Example 4] |  | 27 | 26 |  |  | 60 | 33 |
| COC(=O)CCC(N=Cc1c(O)ccc2ccccc12)C(=O)O (stereo not drawn) [Synthesis Example 48] |  | 54 | 85 |  |  |  |  |
